Source: patent US12077503B2, “Substituted cyclic amides and their use as herbicides” (FMC CORPORATION, priority 2015, dated 2024)

How the values were obtained:
Experiment in all cases: Test D preemergence
Assay type in all cases: in vivo
Settings in all cases: scale 0 to 100
[1] = tested on: Galium (catchweed bedstraw, Galium aparine)
Text: (§1) Seeds of plant species selected from bluegrass (annual bluegrass, Poa annua), blackgrass (Alopecurus myosuroides), canarygrass (littleseed canarygrass, Phalaris minor), chickweed (common chickweed, Stellaria media), Galium (catchweed bedstraw, Galium aparine), bromegrass, downy (downy bromegrass, Bromus tectorum), field poppy (Papaver rhoeas), field violet (Viola arvensis), foxtail, green (green foxtail, Setaria viridis), deadnettle (henbit deadnettle, Lamium amplexicaule), ryegrass, Italian (Italian ryegrass, Lolium multiflorum), Kochia (Kochia scoparia), lambsquarters (Chenopodium album), oilseed rape (Brassica napus), pigweed (Amaranthus retroflexus), chamomile (scentless chamomile, Matricaria inodora), Russian thistle (Salsola kali), speedwell (bird's-eye speedwell, Veronica persica), barley, spring (spring barley, Hordeum vulgare), wheat, spring (spring wheat, Triticum aestivum), buckwheat, wild (wild buckwheat, Polygonum convolvulus), mustard, wild (wild mustard, Sinapis arvensis), oat, wild (wild oat, Avena fatua), radish, wild (wild radish, Raphanus raphanistrum), windgrass (Apera spica-venti), barley, winter (winter barley Hordeum vulgare), and wheat, winter (winter wheat, Triticum aestivum) were planted into a silt loam soil and treated preemergence with test chemicals formulated in a non-phytotoxic solvent mixture which included a surfactant.
(§2) Treated plants and controls were maintained in a controlled growth environment approximately 21 d after which time all species were compared to controls and visually evaluated. Plant response ratings, summarized in Table D, are based on a scale of 0 to 100 where 0 is no effect and 100 is complete control. A dash (-) response means no test result.

[2] = tested on: Russian thistle (Salsola kali)
Text: as §1, §2

[3] = tested on: barley, spring (spring barley, Hordeum vulgare)
Text: as §1, §2

[4] = tested on: barley, winter (winter barley Hordeum vulgare)
Text: as §1, §2

[5] = tested on: blackgrass (Alopecurus myosuroides)
Text: as §1, §2

[6] = tested on: bluegrass (annual bluegrass, Poa annua)
Text: as §1, §2

[7] = tested on: bromegrass, downy (downy bromegrass, Bromus tectorum)
Text: as §1, §2

[8] = tested on: canarygrass (littleseed canarygrass, Phalaris minor)
Text: as §1, §2

[9] = tested on: chamomile (scentless chamomile, Matricaria inodora)
Text: as §1, §2

[10] = tested on: chickweed (common chickweed, Stellaria media)
Text: as §1, §2

[11] = tested on: deadnettle (henbit deadnettle, Lamium amplexicaule)
Text: as §1, §2

[12] = tested on: field poppy (Papaver rhoeas)
Text: as §1, §2

[13] = tested on: foxtail, green (green foxtail, Setaria viridis)
Text: as §1, §2

[14] = tested on: lambsquarters (Chenopodium album)
Text: as §1, §2

[15] = tested on: mustard, wild (wild mustard, Sinapis arvensis)
Text: as §1, §2

[16] = tested on: oat, wild (wild oat, Avena fatua)
Text: as §1, §2

[17] = tested on: oilseed rape (Brassica napus)
Text: as §1, §2

[18] = tested on: pigweed (Amaranthus retroflexus)
Text: as §1, §2

[19] = tested on: radish, wild (wild radish, Raphanus raphanistrum)
Text: as §1, §2

[20] = tested on: ryegrass, Italian (Italian ryegrass, Lolium multiflorum)
Text: as §1, §2

[21] = tested on: wheat, spring (spring wheat, Triticum aestivum)
Text: as §1, §2

[22] = tested on: wheat, winter (winter wheat, Triticum aestivum)
Text: as §1, §2

CN1CC(c2ccc(C(F)(F)F)cc2)C(C(=O)Nc2ccccc2S(C)(=O)=O)C1=O (stereo not shown) [Compound 624]
5: Plant response rating: Barley, Spring ([3]; 125 g ai/ha) | Plant response rating: Blackgrass ([5]; 31 g ai/ha) | Plant response rating: Blackgrass ([5]; 62 g ai/ha) | Plant response rating: Oat, Wild ([16]; 62 g ai/ha) | Plant response rating: Wheat, Spring ([21]; 31 g ai/ha) | Plant response rating: Wheat, Winter ([22]; 125 g ai/ha)
35: Plant response rating: Lambsquarters ([14]; 125 g ai/ha) | Plant response rating: Oat, Wild ([16]; 250 g ai/ha) | Plant response rating: Oilseed Rape ([17]; 125 g ai/ha) | Plant response rating: Pigweed ([18]; 31 g ai/ha)
100: Plant response rating: Chamomile ([9]; 250 g ai/ha) | Plant response rating: Field Poppy ([12]; 125 g ai/ha) | Plant response rating: Field Poppy ([12]; 250 g ai/ha)
50: Plant response rating: Russian Thistle ([2]; 250 g ai/ha) | Plant response rating: Foxtail, Green ([13]; 62 g ai/ha)
20: Plant response rating: Bromegrass, Downy ([7]; 125 g ai/ha) | Plant response rating: Bromegrass, Downy ([7]; 250 g ai/ha)
30: Plant response rating: Russian Thistle ([2]; 62 g ai/ha) | Plant response rating: Mustard, Wild ([15]; 62 g ai/ha)
55: Plant response rating: Bluegrass ([6]; 125 g ai/ha)
70: Plant response rating: Deadnettle ([11]; 250 g ai/ha) | Plant response rating: Lambsquarters ([14]; 62 g ai/ha) | Plant response rating: Mustard, Wild ([15]; 250 g ai/ha)
80: Plant response rating: Pigweed ([18]; 62 g ai/ha)
10: Plant response rating: Russian Thistle ([2]; 125 g ai/ha) | Plant response rating: Bluegrass ([6]; 31 g ai/ha) | Plant response rating: Bromegrass, Downy ([7]; 62 g ai/ha) | Plant response rating: Wheat, Spring ([21]; 62 g ai/ha) | Plant response rating: Wheat, Winter ([22]; 250 g ai/ha)
45: Plant response rating: Canarygrass ([8]; 250 g ai/ha)
75: Plant response rating: Radish, Wild ([19]; 250 g ai/ha)
95: Plant response rating: Chamomile ([9]; 62 g ai/ha) | Plant response rating: Foxtail, Green ([13]; 250 g ai/ha) | Plant response rating: Pigweed ([18]; 125 g ai/ha)
15: Plant response rating: Blackgrass ([5]; 125 g ai/ha) | Plant response rating: Canarygrass ([8]; 62 g ai/ha) | Plant response rating: Chickweed ([10]; 31 g ai/ha) | Plant response rating: Field Poppy ([12]; 31 g ai/ha) | Plant response rating: Mustard, Wild ([15]; 31 g ai/ha) | Plant response rating: Oat, Wild ([16]; 125 g ai/ha) | Plant response rating: Wheat, Spring ([21]; 125 g ai/ha)
65: Plant response rating: Bluegrass ([6]; 250 g ai/ha) | Plant response rating: Oilseed Rape ([17]; 250 g ai/ha)
25: Plant response rating: Bluegrass ([6]; 62 g ai/ha) | Plant response rating: Canarygrass ([8]; 125 g ai/ha) | Plant response rating: Deadnettle ([11]; 125 g ai/ha) | Plant response rating: Field Poppy ([12]; 62 g ai/ha) | Plant response rating: Oilseed Rape ([17]; 62 g ai/ha) | Plant response rating: Ryegrass, Italian ([20]; 125 g ai/ha) | Plant response rating: Ryegrass, Italian ([20]; 250 g ai/ha)
40: Plant response rating: Barley, Spring ([3]; 250 g ai/ha) | Plant response rating: Barley, Winter ([4]; 250 g ai/ha) | Plant response rating: Foxtail, Green ([13]; 31 g ai/ha) | Plant response rating: Wheat, Spring ([21]; 250 g ai/ha)
90: Plant response rating: Chamomile ([9]; 125 g ai/ha) | Plant response rating: Foxtail, Green ([13]; 125 g ai/ha)
85: Plant response rating: Blackgrass ([5]; 250 g ai/ha) | Plant response rating: Chickweed ([10]; 250 g ai/ha)
0: Plant response rating: Galium ([1]; 31 g ai/ha) | Plant response rating: Galium ([1]; 62 g ai/ha) | Plant response rating: Galium ([1]; 125 g ai/ha) | Plant response rating: Galium ([1]; 250 g ai/ha) | Plant response rating: Russian Thistle ([2]; 31 g ai/ha) | Plant response rating: Barley, Spring ([3]; 31 g ai/ha) | Plant response rating: Barley, Spring ([3]; 62 g ai/ha) | Plant response rating: Barley, Winter ([4]; 31 g ai/ha) | Plant response rating: Barley, Winter ([4]; 62 g ai/ha) | Plant response rating: Barley, Winter ([4]; 125 g ai/ha) | Plant response rating: Bromegrass, Downy ([7]; 31 g ai/ha) | Plant response rating: Canarygrass ([8]; 31 g ai/ha) | Plant response rating: Chamomile ([9]; 31 g ai/ha) | Plant response rating: Deadnettle ([11]; 31 g ai/ha) | Plant response rating: Deadnettle ([11]; 62 g ai/ha) | Plant response rating: Lambsquarters ([14]; 31 g ai/ha) | Plant response rating: Oat, Wild ([16]; 31 g ai/ha) | Plant response rating: Oilseed Rape ([17]; 31 g ai/ha) | Plant response rating: Radish, Wild ([19]; 31 g ai/ha) | Plant response rating: Radish, Wild ([19]; 125 g ai/ha) | Plant response rating: Ryegrass, Italian ([20]; 31 g ai/ha) | Plant response rating: Ryegrass, Italian ([20]; 62 g ai/ha) | Plant response rating: Wheat, Winter ([22]; 31 g ai/ha) | Plant response rating: Wheat, Winter ([22]; 62 g ai/ha)
98: Plant response rating: Pigweed ([18]; 250 g ai/ha)
60: Plant response rating: Chickweed ([10]; 125 g ai/ha) | Plant response rating: Lambsquarters ([14]; 250 g ai/ha)
